According to patent US20240276986A1, “Compositions With Ethofumesate And A Safener” (BAYER AKTIENGESELLSCHAFT, priority 2021, published 2024):
Like-named read-outs stand apart in the source and are kept apart here.

Key:
[1] = system: annual bluegrass (Poa annua L.); settings: pre-emergence or early post-emergence at 0.8 to 4.5 kg/ha; Italian ryegrass seed fields; cited from earlier work
winter barley (HORVW) = assay: Field trial, crop injury in winter barley after early post-emergence spray; assay type: in vivo, Hordeum vulgare; settings: post-emergence BBCH 11, 140 L/ha, ethofumesate 250 g/ha, combination 250 + 100 g/ha, visual rating vs untreated control
Method: (§1) In field trials the interaction of (i) ethofumesate and (ii) the safener mefenpyr-diethyl concerning cereal crop injury was investigated.
(§2) Plots of different verities of wheat and barley crops in the field were sprayed with an application volume of 140 L/ha with a handheld spray boom.
(§3) Application of the application spray compostions was carried out early in each case post-emergence at BBCH growth stage 11 (first leaf unfolded) of the respective wheat or barley crops.
The three different winter barley (HORVW) varieties tested were CALIFORNIA, CIERZO and KWS ORBIT.
(§4) The maximum crop damage and the final crop damage were in each case visually rated on a percentage scale in relation to the untreated control (100%=all plants dead, complete crop kill; 50%=green plant biomass reduced by 50%, and 0%=like control plot, no crop injury).
(§5) The main symptoms of crop damage observed were thinning and stunting.

barley and wheat = settings: greenhouse studies; cited from earlier work
[2] = system: volunteer wheat (Triticum aestivum L.); settings: cited from earlier work
[3] = system: soft winter wheat (TRZAW); assay: Field trial, crop injury in soft winter wheat after early post-emergence spray; assay type: in vivo, Triticum aestivum; settings: post-emergence BBCH 11, 140 L/ha, ethofumesate 250 g/ha, combination 250 + 100 g/ha, visual rating vs untreated control
Method: as §1, §2, §3
The four different soft winter wheat (TRZAW) varieties tested were ARTHUR NICK, ELIXER, PISTOLO and RUBISKO.
as §4, §5

[4] = system: cereral crops such as wheat or barley; assay: Own experiments, safening effect of mefenpyr-diethyl used with flufenacet; assay type: in vivo; settings: used with flufenacet (WSSA group 15); cereal crops such as wheat or barley

Row | Compound | control of annual bluegrass [1] | Final crop damage in % (winter barley (HORVW); Variety CALIFORNIA) [%] | Maximum crop damage in % (winter barley (HORVW); Variety CALIFORNIA) [%] | Final crop damage in % (winter barley (HORVW); Variety CIERZO) [%] | Maximum crop damage in % (winter barley (HORVW); Variety CIERZO) [%] | Final crop damage in % (winter barley (HORVW); Variety KWS ORBIT) [%] | Maximum crop damage in % (winter barley (HORVW); Variety KWS ORBIT) [%] | susceptibility of barley and wheat to soil residues of ethofumesate relative to corn (barley and wheat) | control of volunteer wheat ([2]; 1.7 kg/ha or more, wheat in the one- to three-leaf stage) | control of volunteer wheat ([2]; applied pre-emergence soon after planting or at the end of November to wheat in the four-leaf to four-tiller stage) | Final crop damage in % ([3]; Variety ARTUR NICK) [%] | Maximum crop damage in % ([3]; Variety ARTUR NICK) [%] | Final crop damage in % ([3]; Variety ELIXER) [%] | Maximum crop damage in % ([3]; Variety ELIXER) [%] | Final crop damage in % ([3]; Variety PISTOLO) [%] | Maximum crop damage in % ([3]; Variety PISTOLO) [%] | Final crop damage in % ([3]; Variety RUBISKO) [%] | Maximum crop damage in % ([3]; Variety RUBISKO) [%] | safening effect [4]
1 | CCOC1Oc2ccc(OS(C)(=O)=O)cc2C1(C)C (stereo not shown) [Ethofumesate, 2-ethoxy-2,3-dihydro-3,3-dimethylbenzofuran-5-yl methanesulfonate] | eliminated annual bluegrass | 12.5 | 25 | 19.7 | 28 | 25.0 | 45 | about 10 times | eliminated the wheat | not eliminated | 11.6 | 16 | 28.3 | 63 | 14.0 | 24 | 13.7 | 30 | 
2 | CCOC(=O)C1=NN(c2ccc(Cl)cc2Cl)C(C)(C(=O)OCC)C1 (stereo not shown) [mefenpyr-diethyl, ethyl 1-(2,4-dichlorophenyl)-5-(ethoxycarbonyl)-5-methyl-2-pyrazoline-3-carboxylate] |  |  |  |  |  |  |  |  |  |  |  |  |  |  |  |  |  |  | does not have a safening effect
